# Measurements published in publication PMC6556873, “Rapid Covalent-Probe Discovery by Electrophile-Fragment Screening” (Journal of the American Chemical Society, 2019).
# Like-named read-outs stand apart in the source and are kept apart here.
# Experiments:
# [1] = in vitro; design: species or system CCD841, HEK293; details: human, hb2 cells, read-out: HB-2 Cells Viability (%)
# [2] = target: T1, OTUB2 (OTUB2A) (Homo sapiens, UniProt Q96DC9); design: Intact protein LC/MS covalent labelling, fragments in pools of five, 200 uM each, 4 °C; details: 24 h, 4 °C, pool of five; 200 µM; covalent
# T1 construct: full length residues 1-234, E. coli BL21(DE3)-R3, His tag removed by TEV, construct 27312 Da
# T1 sequence (Q96DC9 1-234): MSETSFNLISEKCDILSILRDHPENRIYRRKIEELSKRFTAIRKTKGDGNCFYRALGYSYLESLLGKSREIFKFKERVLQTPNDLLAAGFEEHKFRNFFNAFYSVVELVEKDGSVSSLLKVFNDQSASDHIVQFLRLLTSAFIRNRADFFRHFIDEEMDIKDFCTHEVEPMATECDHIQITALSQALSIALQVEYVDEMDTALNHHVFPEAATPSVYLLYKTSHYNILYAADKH
# Protocol: (§1) Incubations were performed at 200 μM for each compound and 2 μM of protein (10 μM for BSA) for 24 h at 4 °C with moderate shaking. Incubation buffers varied among proteins (PBS pH 7.4 for QSOX1 and BSA; 10 mM HEPES pH 7.5, 0.3 M NaCl, 0.5 mM TCEP for PCAF, UPS8, and NUDT7; […]; 10 mM Na2HPO4 pH 7.5 100 mM NaCl 5 mM β-mercaptoethanol for NV3CP; 20 mM Na phosphate pH 7.5 for NNMT; […]. The reaction was stopped by quenching with formic acid, 0.4% final concentration. Each protein was incubated with the electrophilic library in pools of five compounds per well. The pool’s composition maximized the difference in mass between fragments in the same well. Incubations were performed with each fragment at 200 μM, for 24 h at 4 °C, to allow the screening of proteins that are not stable for long time periods at higher temperatures. Following incubation, we used intact protein [compound left out] chromatography/mass spectrometry (LC/MS) to identify the fragments and quantify their labeling (Figure 3A). […] There was good agreement between the percent of labeling of NUDT7 by 100 random individual compounds and that obtained in pools of five (R^2=0.78; Figure S6 and Data set 2 in the Supporting Information).
# [3] = target: T2, PCAF (Homo sapiens, UniProt Q92831); design: Intact protein LC/MS covalent labelling, fragments in pools of five, 200 uM each, 4 °C; details: 24 h, 4 °C, pool of five; 200 µM; covalent
# T2 construct: gene KAT2B
# Protocol: as §1
# [4] = target: T3, NUDT7 (Homo sapiens, UniProt P0C024); design: Intact protein LC/MS covalent labelling, fragments in pools of five, 200 uM each, 4 °C; details: 24 h, 4 °C, pool of five; 200 µM; covalent
# T3 construct: residues 14-235, E. coli, pNIC28-Bsa4, N-terminal His6 tag removed by TEV, construct 26672 Da
# Protocol: as §1
# [5] = target: T4, BSA (Bos taurus, UniProt P02769); design: Intact protein LC/MS covalent labelling, fragments in pools of five, 200 uM each, 4 °C; details: 24 h, 4 °C, pool of five; 200 µM; covalent
# T4 construct: gene ALB
# Protocol: as §1
# [6] = in vitro; design: species or system HB2, HEK293; details: human, ccd841 cells
# [7] = in vitro; design: species or system HB2, CCD841; details: human, hek293 cells
# T3 sequence (P0C024 14-235): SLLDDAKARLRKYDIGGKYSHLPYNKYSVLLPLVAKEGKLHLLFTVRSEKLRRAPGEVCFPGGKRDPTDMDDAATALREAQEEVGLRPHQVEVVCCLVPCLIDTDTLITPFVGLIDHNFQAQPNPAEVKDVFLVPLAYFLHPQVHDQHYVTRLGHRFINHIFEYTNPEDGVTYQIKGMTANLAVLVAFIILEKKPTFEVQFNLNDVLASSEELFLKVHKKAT
# T2 sequence (Q92831 whole entry, the tested form may be a part): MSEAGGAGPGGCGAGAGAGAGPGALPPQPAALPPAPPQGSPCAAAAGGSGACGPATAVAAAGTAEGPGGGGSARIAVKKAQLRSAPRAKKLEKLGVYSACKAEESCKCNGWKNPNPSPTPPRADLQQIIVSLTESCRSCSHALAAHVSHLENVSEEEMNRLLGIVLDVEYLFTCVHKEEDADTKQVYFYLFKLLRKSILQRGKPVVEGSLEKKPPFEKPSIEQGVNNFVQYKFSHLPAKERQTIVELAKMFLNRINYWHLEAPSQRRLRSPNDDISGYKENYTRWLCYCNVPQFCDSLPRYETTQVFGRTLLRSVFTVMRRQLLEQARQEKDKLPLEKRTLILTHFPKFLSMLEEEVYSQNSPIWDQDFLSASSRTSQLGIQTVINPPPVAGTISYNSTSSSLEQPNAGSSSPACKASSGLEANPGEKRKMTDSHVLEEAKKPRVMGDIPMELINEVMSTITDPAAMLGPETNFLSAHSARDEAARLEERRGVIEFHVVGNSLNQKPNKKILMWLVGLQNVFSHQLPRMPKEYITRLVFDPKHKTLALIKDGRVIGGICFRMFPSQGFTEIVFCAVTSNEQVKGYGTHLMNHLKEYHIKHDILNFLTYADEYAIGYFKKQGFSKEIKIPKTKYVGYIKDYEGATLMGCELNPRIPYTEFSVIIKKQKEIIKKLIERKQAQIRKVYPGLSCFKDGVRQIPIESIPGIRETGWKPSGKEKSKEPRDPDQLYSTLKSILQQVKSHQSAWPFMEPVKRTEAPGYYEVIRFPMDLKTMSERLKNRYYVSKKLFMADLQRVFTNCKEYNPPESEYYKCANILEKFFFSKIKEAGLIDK
# T4 sequence (P02769 whole entry, the tested form may be a part): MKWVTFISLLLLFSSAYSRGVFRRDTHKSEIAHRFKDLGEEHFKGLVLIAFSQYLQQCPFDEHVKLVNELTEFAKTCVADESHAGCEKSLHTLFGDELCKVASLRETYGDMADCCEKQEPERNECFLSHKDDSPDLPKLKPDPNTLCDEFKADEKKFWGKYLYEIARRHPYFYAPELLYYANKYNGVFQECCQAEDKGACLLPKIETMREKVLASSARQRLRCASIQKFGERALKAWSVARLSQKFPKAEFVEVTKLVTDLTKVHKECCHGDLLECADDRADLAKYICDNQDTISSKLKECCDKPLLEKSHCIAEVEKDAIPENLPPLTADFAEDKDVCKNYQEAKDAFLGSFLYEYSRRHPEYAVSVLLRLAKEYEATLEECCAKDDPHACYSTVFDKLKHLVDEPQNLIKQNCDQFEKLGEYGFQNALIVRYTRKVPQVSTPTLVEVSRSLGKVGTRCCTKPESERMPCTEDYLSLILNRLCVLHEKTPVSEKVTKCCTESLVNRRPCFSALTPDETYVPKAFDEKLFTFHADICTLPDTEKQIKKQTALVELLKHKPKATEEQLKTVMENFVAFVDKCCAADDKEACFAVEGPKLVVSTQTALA
SMILES,"viability at 48 h, 10 µM [1] [%]",OTUB2 [2],PCAF [3],NUDT7 [4],BSA [5],"viability at 48 h, 10 µM [6] [%]","viability at 48 h, 10 µM [7] [%]"
O=C(CCl)NC1CS(=O)(=O)CC1Cl (centres unmarked) [PCM-0102291],99.6,0,0,0.12,0,76.3,91.6
CC1CCCCC1NC(=O)NC(=O)CCl (centres unmarked) [PCM-0102292],52.8,0.24,0,0,0,69,48.6
O=C(CCl)Nc1nc2ccc(F)cc2s1 [PCM-0102294],53,0,0,0.89,0,62.7,76.7
O=C(CCl)N1N=C(c2cccs2)CC1c1ccco1 (centres unmarked) [PCM-0102295],5,0.06,0,0.46,0,7.9,1.4
Cn1nc(-c2ccc(Cl)cc2)cc1NC(=O)CCl [PCM-0102296],1.6,0.38,0,0.54,0,4.5,0.5
O=C(CCl)Nc1cc2c(cc1Br)OCCO2 [PCM-0102299],15.8,0.67,0,0.27,0,62.8,12.6
CCc1cc(C(=O)NNC(=O)CCl)sc1C [PCM-0102300],45.9,0.83,0,0.11,0,74.3,75.8
N#CC1(N2CCN(C(=O)CCl)CC2)CCCCC1 [PCM-0102303],103,0.07,0,0,0,107,91.6
Cc1cc(CNC(=O)CCl)ccc1F [PCM-0102305],85.5,0.59,0,0,0.13,80.7,57.8
O=C(CCl)N1CCN(C(=O)c2cccs2)CC1 [PCM-0102306],39.9,0,0,0,0,63.6,12.9
O=C(CCl)Nc1ccccc1C(=O)O [PCM-0102307],105,0,0,0,0,96.5,78.8
O=C(CCl)NC(=O)Nc1ccc(Br)cc1 [PCM-0102308],78.8,0.1,0,0.17,0.11,89.9,71.6
O=C(CCl)Nc1ccccc1Br [PCM-0102312],90.8,0,0,0.15,0,89.7,92.9
O=C(CCl)N(C1CCCC1)C1CCS(=O)(=O)C1 (centres unmarked) [PCM-0102313],64.5,0,0,0.11,0,65.9,42.7
O=C(CCl)Nc1ccc(Cl)c([N+](=O)[O-])c1 [PCM-0102316],0.4,0.36,0,0.28,0,1,1.1
Cc1ccc(NC(=O)CCl)cc1 [PCM-0102320],29.1,0.24,0,0,0,63.2,8.7
O=C(CCl)Nc1cc(C(F)(F)F)ccc1N1CCCC1 [PCM-0102321],104,0,0,0,0,116,110
O=C(CCl)Nc1ccc(C(F)(F)F)cc1 [PCM-0102323],11.1,0.17,0,0.07,0,53.2,5.5
COc1ccc2c(c1)CCCN2C(=O)CCl [PCM-0102325],7.5,0,0,0.12,0,40.2,1.8
O=C(CCl)Nc1ncc(Br)s1 [PCM-0102326],38,0.06,0,0,0,47.7,23
O=C(CCl)N1CCN(S(=O)(=O)c2cccc(F)c2)CC1 [PCM-0102327],5.2,0,0,0.13,0,45.3,8.1
O=C(CCl)Nc1ccc(F)c(F)c1 [PCM-0102328],14.3,0.31,0,0,0.24,30.4,1.4
O=C(CCl)Nc1cccc2c1N=S=N2 [PCM-0102329],38.2,0,0,0,0,50.1,19.9
O=C(CCl)Nc1cc2c(cc1Cl)OCCCO2 [PCM-0102331],17.2,0.26,0,0.36,0,57.1,10.3
CC1CCCC(NC(=O)NC(=O)CCl)C1C (centres unmarked) [PCM-0102332],48.7,0,0,0,0,71,52.5
O=C(CCl)NC(=O)Nc1ccc2c(c1)OCO2 [PCM-0102333],83.2,0.53,0,0.29,0,98.4,82.6
CC(NC(=O)CCl)c1ccc(Cl)cc1 (centres unmarked) [PCM-0102334],78.4,0.25,0,0,0,67.8,68.5
CS(=O)(=O)c1ccc(NC(=O)CCl)cc1 [PCM-0102335],37.1,0.3,0,0.06,0,46,2.7
O=C(CCl)N1CCNC1=O [PCM-0102338],99.5,0,0,0,0,98.6,86.5
